From patent US8299285B2, “Compounds for imaging and therapy” (Isis Innovation Limited, priority 2005, dated 2012)
Read-outs that look alike come from different tables or passages of the source.

How the values were obtained:
[1] = Cyclic voltammetry in DMF with a glassy carbon electrode; type: physicochemical; settings: vs SCE
Text: Under the same conditions the hypoxia selective radiopharmaceutical [Cu(ATSM)] undergoes a reversible reduction at E1/2=−0.59 V.

[2] = octanol/water partition coefficient (log P); type: physicochemical
Text: Modification of the substituents present on the bis(thiosemicarbazone) ligand can be used to control, for example, the lipophilicity of the ligand and resulting complex. For example, lipophilicity can be increased with increasing alkyl substitution of the conjugated ligand backbone, particularly in the groups R2, R2′, L1, L1′, R1 and R1′.

## CN=C([S-])N/N=C(C)/C(C)=N/NC([S-])=NC.[Cu+2] [[Cu(ATSM)], Cu[ATSM], reference compound]
[1]
  E1/2 of reduction (Cu(II) to Cu(I)): −0.59 V

## CC(C=NNC(=S)N(C)C)=NNC(=S)N(C)C.[Cu] [Cu[PTSM2]]
[2]
  log P: 3.18

## CC1=[N+]2N=C(N)[S][Cu-2]23[S]C(N)=N[N+]3=C1 (stereo not drawn) [Cu[PTS]]
[2]; P is the octanol/water partition coefficient
  log P: 0.76
